Laboratory results from patent publication US10568879B2 (GALAPAGOS NV, priority 2015, dated 2020).
pIC50: −log10 of the molar value. Where two headings read alike, the source gives them in different places. Each block holds one compound with its values, some of them ahead of it.

What was measured:
human neutrophils = assay: Human neutrophil migration assay; format: cell-based; conditions: Homo sapiens, Neutrophil, read-out: Human neutrophil migration IC50
Description: The activity of GPR84 agonists and antagonists can therefore be assayed in a human neutrophil migration assay. The human neutrophil migration assay makes use of freshly isolated human neutrophils from buffy coats that are subsequently used in a functional chemotaxis assay setup. […] After 1 h of incubation at 37° C. and 5% CO2, the number of migrated neutrophils in the lower compartment can be quantified by measuring the ATP content using ATPlite™ Luminescence Assay System. A human buffy coat suspension is diluted with an equal volume of ice cold DPBS. 20 mL of the diluted buffy coat suspension is gently mixed with 4 mL of ACD buffer (140 mM citric acid, 200 mM sodium citrate and 220 mM dextrose). Then, 12 mL of a 6% dextran/0.9% NaCl solution (15 g dextran T2000 and 2.25 g NaCl dissolved in 250 mL H2O) is added to the mixture and the samples are inverted gently up to 20 times. The total volume is transferred to a new recipient and incubated at room temperature to allow sedimentation of red blood cells. The yellowish upper fraction is then transferred to a clean centrifugation tube and centrifuged for 12 min at 1300 rpm and 4° C. After centrifugation, the supernatant is discarded and the remaining cell pellet is rapidly resuspended in 12 mL of ice-cold H2O to perform a red blood cell lysis by osmotic burst. After 20 seconds, 4 mL of ice-cold 0.6 M KCl is added to restore salt concentration. Samples are mixed carefully and centrifuged for 6 min at 1300 rpm and 4° C. The supernatant is discarded and the red blood cell lysis procedure is repeated one more time. […] A neutrophil cell suspension of 8.9×10^6 cells per mL is prepared in chemotaxis buffer and 180 μL per well is plated in a 96-well V-bottom plate. 20 μL of test compound solution in chemotaxis buffer is added to the 180 μL cell suspension. The mixture is incubated at room temperature for 30 min with intermediate gentle resuspension of the cells after 15 min. […] After 1 h at 37° C., 5% CO2 in a humidified incubator, the upper plate of the Transwell® system is gently removed. […] After incubation, 270 μL of cell lysate is then transferred onto a white 96-well plate for quantification by a luminescence plate reader. The relative luminescent signal measured is considered linearly related to the number of cells having migrated from the upper compartment into the receiver well.

GPR84 = biological target: T1, GPR84 (Homo sapiens, UniProt Q9NQS5); assay: GPR84 [35S]GTPγS binding assay; format: biochemical; conditions: 3,3′-diindolylmethane at EC80; membranes from stable cell line over expressing GPR84
T1 construct: expressed in transfected cells
Outline: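 Antagonist-mode [35S]GTPγS binding on membranes from a GPR84-overexpressing stable line (GDP-preincubated), stimulated with 3,3′-diindolylmethane at EC80. Buffer 20 mM Tris pH 7.5, 5 mM MgCl2, 250 mM NaCl, saponin; 0.1 nM [35S]GTPγS, 90 min at room temperature, SPA bead read-out.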

[1] = embelin at EC80 as chemotactic agent, 1 h at 37° C.

T1 sequence (Q9NQS5 whole entry): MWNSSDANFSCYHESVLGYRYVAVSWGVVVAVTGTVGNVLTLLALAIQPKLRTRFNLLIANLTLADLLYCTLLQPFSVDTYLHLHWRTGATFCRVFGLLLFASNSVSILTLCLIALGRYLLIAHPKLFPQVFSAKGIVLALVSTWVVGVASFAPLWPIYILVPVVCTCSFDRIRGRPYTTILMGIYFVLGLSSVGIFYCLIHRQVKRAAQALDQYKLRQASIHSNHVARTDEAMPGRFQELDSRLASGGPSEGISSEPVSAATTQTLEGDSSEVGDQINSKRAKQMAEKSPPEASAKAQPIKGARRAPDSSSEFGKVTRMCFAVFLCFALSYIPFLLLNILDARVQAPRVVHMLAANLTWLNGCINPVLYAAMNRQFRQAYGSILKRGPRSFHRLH

Compound: Cc1c2n(c(OC[C@@H]3COCCO3)cc1=O)CCc1cc(OCc3cccc(OC(F)(F)F)c3)ccc1-2 [Compound 32, 4-[[(2S)-1,4-dioxan-2-yl]methoxy]-1-methyl-9-[[3-(trifluoromethoxy)phenyl]methoxy]-6,7-dihydrobenzo[a]quinolizin-2-one]
pIC50 (human neutrophils; [1]): 7.00 to 11.00
pIC50 (GPR84): 7.00 to 11.00

Compound: Cc1c2n(c(NC[C@@H]3COCCO3)cc1=O)CCc1cc(OCC(F)F)ccc1-2 [Compound 35, 9-(2,2-difluoroethoxy)-4-[[(2R)-1,4-dioxan-2-yl]methylamino]-1-methyl-6,7-dihydrobenzo[b]quinolizin-2-one]
pIC50 (human neutrophils; [1]): 7.00 to 11.00
pIC50 (GPR84): 6.30 to 7.00

Compound: Cc1c2n(c(NC[C@@H]3COCCO3)cc1=O)CCc1cc(OCC(F)(F)F)ccc1-2 [Compound 36, 4-[[(2R)-1,4-dioxan-2-yl]methylamino]-1-mehtyl-9-(2,2,2-trifluoroethoxy)-6,7-dihydrobenzo[a]quinolizin-2-one]
pIC50 (human neutrophils; [1]): 6.30 to 7.00
pIC50 (GPR84): 7.00 to 11.00

Compound: Cc1c2n(c(OC[C@@H]3COCCO3)cc1=O)CCc1cc(OS(=O)(=O)C(F)(F)F)ccc1-2 [Compound 37, [4-[[(2S)-1,4-dioxan-2-yl]methoxy]-1-methyl-2-oxo-6,7-dihydrobenzo[a]quinolizin-9-yl] trifluoromethanesulfonate]
pIC50 (human neutrophils; [1]): 7.00 to 11.00
pIC50 (GPR84): 7.00 to 11.00

Compound: Cc1c2n(c(OC[C@@H]3COCCO3)cc1=O)CCc1cc(C3=CCOCC3)ccc1-2 [Compound 39, 9-(3,6-dihydro-2H-pyran-4-yl)-4-[[(2S)-1,4-dioxan-2-yl]methoxy]-1-methyl-6,7-dihydrobenzo[a]quinolizin-2-one]
pIC50 (human neutrophils; [1]): 7.00 to 11.00
pIC50 (GPR84): 6.30 to 7.00

Compound: CCn1cc(-c2ccc3c(c2)CCn2c(OC[C@@H]4COCCO4)cc(=O)c(C)c2-3)cn1 [Compound 40, 4-[[(2S)-1,4-dioxan-2-yl]methoxy]-9-(1-ethylpyrazol-4-yl)-1-methyl-6,7-dihydrobenzo[a]quinolizin-2-one]
pIC50 (human neutrophils; 1 h): 7.00 to 11.00
pIC50 (GPR84): 7.00 to 11.00

Compound: Cc1c2n(c(OC[C@@H]3COCCO3)cc1=O)CCc1cc(C3CCOCC3)ccc1-2 [Compound 41, 4-[[(2S)-1,4-dioxan-2-yl]methoxy]-1-methyl-9-tetrahydropyran-4-yl-6,7-dihydrobenzo[a]quinolizin-2-one]
pIC50 (human neutrophils; [1]): 7.00 to 11.00
pIC50 (GPR84): 7.00 to 11.00

Compound: Cc1c2n(c(NC[C@@H]3CCCO3)cc1=O)CCc1cc(OCC(F)(F)F)ccc1-2 [Compound 42, 1-methyl-4-[[(2S)-tetrahydrofuran-2-yl]methylamino]-9-(2,2,2-trifluoroethoxy)-6,7-dihydrobenzo[a]quinolizin-2-one]
pIC50 (human neutrophils; [1]): 7.00 to 11.00
pIC50 (GPR84): 7.00 to 11.00

Compound: Cc1c2n(c(OC[C@@H]3COCCO3)cc1=O)CCc1cc(N3CCOCC3)ccc1-2 [Compound 63, 4-[[(2S)-1,4-dioxan-2-yl]methoxy]-1-methyl-9-morpholino-6,7-dihydrobenzo[a]quinolizin-2-one]
pIC50 (human neutrophils; [1]): 6.30 to 7.00
pIC50 (GPR84): 7.00 to 11.00

Compound: Cc1c2n(c(OC[C@@H]3COCCO3)cc1=O)CCc1cc(N3CCC(F)(F)CC3)ccc1-2 [Compound 65, 9-(4,4-difluoro-1-piperidyl)-4-[[(2S)-1,4-dioxan-2-yl]methoxy]-1-methyl-6,7-dihydrobenzo[a]quinolizin-2-one]
pIC50 (human neutrophils; [1]): 7.00 to 11.00
pIC50 (GPR84): 7.00 to 11.00

Compound: Cc1c2n(c(OC[C@@H]3COCCO3)cc1=O)CCc1cc(N3CCN(C(=O)C4CC4)CC3)ccc1-2 [Compound 69, 9-[4-(cyclopropanecarbonyl)piperazin-1-yl]-4-[[(2S)-1,4-dioxan-2-yl]methoxy]-1-methyl-6,7-dihydrobenzo[a]quinolizin-2-one]
pIC50 (human neutrophils; [1]): 7.00 to 11.00
pIC50 (GPR84): 7.00 to 11.00

Compound: Cc1c2n(c(OC[C@@H]3COCCO3)cc1=O)CCc1cc(NC(=O)C3CC3)ccc1-2 [Compound 70, N-[4-[[(2S)-1,4-dioxan-2-yl]methoxy]-1-methyl-2-oxo-6,7-dihydrobenzo[a]quinolizin-9-yl]cyclopropanecarboxamide]
pIC50 (human neutrophils; [1]): 7.00 to 11.00
pIC50 (GPR84): 7.00 to 11.00

Results, then the compound that gave them:

pIC50 (human neutrophils; [1]): 7.00 to 11.00
pIC50 (GPR84): 7.00 to 11.00
Compound: Cc1c2n(c(OC[C@@H]3COCCO3)cc1=O)CCc1cc(OCc3ccccn3)ccc1-2 [Compound 31, 4-[[(2S)-1,4-dioxan-2-yl]methoxy]-1-methyl-9-(2-pyridylmethoxy)-6,7-dihydrobenzo[b]quinolizin-2-one]

pIC50 (human neutrophils; [1]): 7.00 to 11.00
pIC50 (GPR84): 7.00 to 11.00
Compound: Cc1c2n(c(OC[C@@H]3COCCO3)cc1=O)CCc1cc(OCc3ccccc3)ccc1-2 [Compound 33, 9-benzyloxy-4-[[(2S)-1,4-dioxan-2-yl]methoxy]-1-methyl-6,7-dihydrobenzo[a]quinolizin-2-one]

pIC50 (human neutrophils; [1]): 6.30 to 7.00
pIC50 (GPR84): 7.00 to 11.00
Compound: Cc1c2n(c(OC[C@@H]3COCCO3)cc1=O)CCc1cc(OCc3cnn(C)c3)ccc1-2 [Compound 38, 4-[[(2S)-1,4-dioxan-2-yl]methoxy]-1-methyl-9-[(1-methylpyrazol-4-yl)methoxy]-6,7-dihydrobenzo[a]quinolizin-2-one]

pIC50 (human neutrophils; [1]): 7.00 to 11.00
pIC50 (GPR84): 7.00 to 11.00
Compound: Cc1noc(COc2ccc3c(c2)CCn2c(OCC4CCCO4)cc(=O)c(C)c2-3)n1 (centres unmarked) [Compound 43, 1-methyl-9-[(3-methyl-1,2,4-oxadiazol-5-yl)methoxy]-4-(tetrahydrofuran-2-ylmethoxy)-6,7-dihydrobenzo[a]quinolizin-2-one]

pIC50 (human neutrophils; [1]): 7.00 to 11.00
pIC50 (GPR84): 7.00 to 11.00
Compound: Cc1noc(COc2ccc3c(c2)CCn2c(OCC4CCCCO4)cc(=O)c(C)c2-3)n1 (centres unmarked) [Compound 44, 1-methyl-9-[(3-methyl-1,2,4-oxadiazol-5-yl)methoxy]-4-(tetrahydropyran-2-ylmethoxy)-6,7-dihydrobenzo[a]quinolizin-2-one]

pIC50 (human neutrophils; [1]): 6.30 to 7.00
pIC50 (GPR84): 7.00 to 11.00
Compound: Cc1c2n(c(OCC3CCCO3)cc1=O)CCc1cc(OCc3ccccn3)ccc1-2 (centres unmarked) [Compound 45, 1-methyl-9-(2-pyridylmethoxy)-4-(tetrahydrofuran-2-ylmethoxy)-6,7-dihydrobenzo[a]quinolizin-2-one]

pIC50 (human neutrophils; [1]): 7.00 to 11.00
pIC50 (GPR84): 7.00 to 11.00
Compound: Cc1c2n(c(OCC3CCCCO3)cc1=O)CCc1cc(OCc3ccccn3)ccc1-2 (centres unmarked) [Compound 46, 1-methyl-9-(2-pyridylmethoxy)-4-(tetrahydropyran-2-ylmethoxy)-6,7-dihydrobenzo[a]quinolizin-2-one]

pIC50 (human neutrophils; [1]): 7.00 to 11.00
pIC50 (GPR84): 7.00 to 11.00
Compound: Cc1c2n(c(OCC3CCCCO3)cc1=O)CCc1cc(OCC3CCCOC3)ccc1-2 (centres unmarked) [Compound 48, 1-methyl-4-(tetrahydropyran-2-ylmethoxy)-9-(tetrahydropyran-3-ylmethoxy)-6,7-dihydrobenzo[a]quinolizin-2-one]

pIC50 (human neutrophils; [1]): 7.00 to 11.00
pIC50 (GPR84): 7.00 to 11.00
Compound: Cc1c2n(c(OC[C@@H]3COCCO3)cc1=O)CCc1cc(OCC3CCCOC3)ccc1-2 (stereo partly drawn) [Compound 49, 4-[[(2S)-1,4-dioxan-2-yl]methoxy]-1-methyl-9-(tetrahydropyran-3-ylmethoxy)-6,7-dihydrobenzo[a]quinolizin-2-one]

pIC50 (human neutrophils; [1]): 7.00 to 11.00
pIC50 (GPR84): 7.00 to 11.00
Compound: Cc1ccc(COc2ccc3c(c2)CCn2c(OCC4CCCO4)cc(=O)c(C)c2-3)cn1 (centres unmarked) [Compound 50, 1-methyl-9-[(6-methyl-3-pyridyl)methoxy]-4-(tetrahydrofuran-2-ylmethoxy)-6,7-dihydrobenzo[a]quinolizin-2-one]

pIC50 (human neutrophils; [1]): 7.00 to 11.00
pIC50 (GPR84): 7.00 to 11.00
Compound: Cc1ccc(COc2ccc3c(c2)CCn2c(OCC4CCCCO4)cc(=O)c(C)c2-3)cn1 (centres unmarked) [Compound 51, 1-methyl-9-[(6-methyl-3-pyridyl)methoxy]-4-(tetrahydropyran-2-ylmethoxy)-6,7-dihydrobenzo[a]quinolizin-2-one]

pIC50 (human neutrophils; [1]): 7.00 to 11.00
pIC50 (GPR84): 7.00 to 11.00
Compound: Cc1noc(COc2ccc3c(c2)CCn2c(OC[C@@H]4COCCO4)cc(=O)c(C)c2-3)n1 [Compound 58, 4-[[(2S)-1,4-dioxan-2-yl]methoxy]-1-methyl-9-[(3-methyl-1,2,4-oxadiazol-5-yl)methoxy]-6,7-dihydrobenzo[a]quinolizin-2-one]

pIC50 (human neutrophils; [1]): 7.00 to 11.00
pIC50 (GPR84): 7.00 to 11.00
Compound: Cc1c2n(c(OC[C@@H]3COCCO3)cc1=O)CCc1cc(OCC(F)F)ccc1-2 [Compound 61, 9-(2,2-difluoroethoxy)-4-[[(2S)-1,4-dioxan-2-yl]methoxy]-1-methyl-6,7-dihydrobenzo[a]quinolizin-2-one]
